Source: the supplement of paper PMC10307832

Columns and labels:
Experiment in all cases: relative viability (nuclei count vs DMSO), 5 days (fraction); higher = more cells survive
AZD1208 + Navitoclax = compound: N[C@@H]1CCCN(c2c(/C=C3\SC(=O)NC3=O)cccc2-c2ccccc2)C1 [AZD1208] + CC1(C)CCC(c2ccc(Cl)cc2)=C(CN2CCN(c3ccc(C(=O)NS(=O)(=O)c4ccc(N[C@H](CCN5CCOCC5)CSc5ccccc5)c(S(=O)(=O)C(F)(F)F)c4)cc3)CC2)C1 [Navitoclax] (partner 0.5 µM)
How it was run: (§1)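 After 5 days of treatment, lung cancer cells in 1536-well plates were fixed and stained in a single step (final 0.05% Triton X-100, 1% formaldehyde, 1 ug/ml Hoechst) and their nuclei counted on 4× images. Treatment had been applied by pin tool the day after seeding as one drug alone or as a fixed anchor-drug dose with five library-drug doses (not always all listed) in √10 steps. Relative viability is the nuclei count of treated wells divided by that of vehicle wells, and values are medians of duplicate plates.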

AZD1208 + Trametinib = compound: N[C@@H]1CCCN(c2c(/C=C3\SC(=O)NC3=O)cccc2-c2ccccc2)C1 [AZD1208] + CC(=O)Nc1cccc(-n2c(=O)n(C3CC3)c(=O)c3c(Nc4ccc(I)cc4F)n(C)c(=O)c(C)c32)c1 [Trametinib] (partner 0.02 µM)
How it was run: as §1

XMD14-99 + Foretinib = compound: CN1CCN(CC1)C2=CC(=C(C=C2)NC3=NC(=C(S3)C(=O)C4=C(C=CC=C4Cl)Cl)N)OC [XMD14-99] + COc1cc2c(Oc3ccc(NC(=O)C4(C(=O)Nc5ccc(F)cc5)CC4)cc3F)ccnc2cc1OCCCN1CCOCC1 [Foretinib] (partner 0.25 µM)
How it was run: as §1

XMD14-99 + Vorinostat = compound: CN1CCN(CC1)C2=CC(=C(C=C2)NC3=NC(=C(S3)C(=O)C4=C(C=CC=C4Cl)Cl)N)OC [XMD14-99] + O=C(CCCCCCC(=O)Nc1ccccc1)NO [Vorinostat] (partner 1 µM)
How it was run: as §1

Cell Line | relative viability (AZD1208 + Navitoclax; first compound 0.08 µM) | relative viability (AZD1208 + Navitoclax; first compound 0.253 µM) | relative viability (AZD1208 + Navitoclax; first compound 0.8 µM) | relative viability (AZD1208 + Navitoclax; first compound 2.53 µM) | relative viability (AZD1208 + Navitoclax; first compound 8 µM) | relative viability (AZD1208 + Trametinib; first compound 0.08 µM) | relative viability (AZD1208 + Trametinib; first compound 0.253 µM) | relative viability (AZD1208 + Trametinib; first compound 2.53 µM) | relative viability (AZD1208 + Trametinib; first compound 8 µM) | relative viability (XMD14-99 + Foretinib; first compound 0.08 µM) | relative viability (XMD14-99 + Foretinib; first compound 0.8 µM) | relative viability (XMD14-99 + Foretinib; first compound 2.53 µM) | relative viability (XMD14-99 + Foretinib; first compound 8 µM) | relative viability (XMD14-99 + Vorinostat; first compound 0.08 µM) | relative viability (XMD14-99 + Vorinostat; first compound 0.8 µM) | relative viability (XMD14-99 + Vorinostat; first compound 2.53 µM) | relative viability (XMD14-99 + Vorinostat; first compound 8 µM) | relative viability (AZD1208 + Trametinib; first compound 0.8 µM)
NCI-H322M | 1.1 | 1.27 | 1.2 | 1.13 | 1.2 | 0.49 | 0.487 | 0.566 | 0.578 | 1.01 | 0.893 | 0.932 | 0.736 | 0.862 | 0.965 | 0.852 | 0.746 | 
NCI-H441 | 0.936 | 0.698 | 0.65 | 0.289 | 0.393 | 0.515 | 0.547 | 0.405 | 0.446 | 0.766 | 0.993 | 0.849 | 0.751 | 0.823 | 0.75 | 0.745 | 0.681 | 0.327
NCI-H460 | 1.05 | 1.34 | 1.17 | 1.26 | 1.16 | 0.137 | 0.189 | 0.109 | 0.124 | 1.03 | 1.03 | 1.01 | 0.808 | 0.735 | 0.693 | 0.625 | 0.49 | 0.138
NCI-H520 | 0.973 | 1.22 | 0.991 | 0.838 | 0.767 | 0.633 | 0.678 | 0.55 | 0.502 | 0.711 | 0.712 | 0.662 | 0.501 | 0.686 | 0.635 | 0.658 | 0.454 | 0.279
NCI-H596 | 0.912 | 1.02 | 0.85 | 0.827 | 0.651 | 0.759 | 0.905 | 0.654 | 0.446 | 0.957 | 0.895 | 0.832 | 0.955 | 0.635 | 0.645 | 0.794 | 0.536 | 0.79
NCI-H647 | 0.934 | 0.974 | 1.14 | 1.01 | 0.801 | 0.383 | 0.503 | 0.471 | 0.358 | 1.3 | 1.15 | 1.22 | 1.01 | 0.522 | 0.581 | 0.648 | 0.582 | 0.567
NCI-H727 | 0.421 | 0.357 | 0.331 | 0.316 | 0.29 | 0.413 | 0.325 | 0.395 | 0.39 | 0.95 | 0.893 | 0.684 | 0.555 | 1.25 | 0.989 | 1.06 | 0.994 | 0.352
NCI-H838 | 1.07 | 1.18 | 1.1 | 1.12 | 1.01 | 0.482 | 0.629 | 0.476 | 0.457 | 1.01 | 0.943 | 0.926 | 0.887 | 0.685 | 0.626 | 0.577 | 0.414 | 0.448
NCI-H1355 | 0.963 | 0.861 | 0.785 | 0.932 | 0.853 | 0.429 | 0.391 | 0.401 | 0.366 | 0.994 | 0.913 | 0.808 | 0.706 | 0.636 | 0.604 | 0.586 | 0.556 | 0.416
NCI-H1395 | 1.05 | 1.23 | 0.956 | 1.02 | 0.872 | 1.03 | 1.08 | 1.01 | 0.878 | 0.986 | 0.965 | 0.998 | 0.901 | 0.889 | 0.891 | 0.761 | 0.527 | 0.932
NCI-H1437 | 1.13 | 1.11 | 1.02 | 1.16 | 1.07 | 0.423 | 0.597 | 0.419 | 0.408 | 1.25 | 1.05 | 1.06 | 0.891 | 0.797 | 0.66 | 0.641 | 0.382 | 0.358
NCI-H1650 | 1.07 | 1.15 | 1.04 | 1.02 | 1.19 | 0.575 | 0.667 | 0.517 | 0.537 | 1.14 | 1.27 | 1.13 | 0.941 | 0.554 | 0.558 | 0.678 | 0.427 | 0.536
NCI-H1651 | 0.879 | 0.929 | 0.858 | 0.887 | 0.774 | 0.87 | 0.81 | 0.742 | 0.746 | 0.811 | 0.706 | 0.866 | 0.694 | 0.614 | 0.487 | 0.534 | 0.448 | 
NCI-H1666 | 0.792 | 0.802 | 0.706 | 0.801 | 0.942 | 0.764 | 0.907 | 0.667 | 0.725 | 1.02 | 0.859 | 0.866 | 0.712 | 1.04 | 0.967 | 0.947 | 0.895 | 0.687
NCI-H1734 | 0.753 | 0.932 | 0.714 | 0.724 | 0.582 | 0.659 | 0.583 | 0.525 | 0.434 | 0.821 | 0.826 | 0.793 | 0.7 | 0.803 | 0.785 | 0.799 | 0.581 | 0.535
NCI-H1755 | 0.991 | 0.989 | 1.02 | 0.952 | 0.786 | 0.755 | 0.841 | 0.705 | 0.647 | 0.916 | 0.9 | 0.817 | 0.687 | 0.661 | 0.742 | 0.686 | 0.608 | 0.779
NCI-H1793 | 0.336 | 0.47 | 0.354 | 0.469 | 0.364 | 0.356 | 0.566 | 0.473 | 0.342 | 0.704 | 0.608 | 0.644 | 0.641 | 0.767 | 0.916 | 0.627 | 0.52 | 0.33
